The assay deals with FP receptor (Homo sapiens (Human), UniProt P43088). As to the kind of experiment: In vitro test of inhibition of human FP receptor activity (PGF2α-induced calcium flux in FP-expressing CHEM1 cells). In kind it is cell-based. As to conditions: PGF2α 2 nM, some mean values of multiple determinations. The gist of the method: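 FP antagonism in FP-expressing CHEM1 cells loaded with Fluo-8. Compound preincubated 10 min at 37° C, then receptor stimulated with 2 nM (final) PGF2α in calcium-free Tyrode with 2 mM CaCl2.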
FP receptor, sequence (P43088 whole entry): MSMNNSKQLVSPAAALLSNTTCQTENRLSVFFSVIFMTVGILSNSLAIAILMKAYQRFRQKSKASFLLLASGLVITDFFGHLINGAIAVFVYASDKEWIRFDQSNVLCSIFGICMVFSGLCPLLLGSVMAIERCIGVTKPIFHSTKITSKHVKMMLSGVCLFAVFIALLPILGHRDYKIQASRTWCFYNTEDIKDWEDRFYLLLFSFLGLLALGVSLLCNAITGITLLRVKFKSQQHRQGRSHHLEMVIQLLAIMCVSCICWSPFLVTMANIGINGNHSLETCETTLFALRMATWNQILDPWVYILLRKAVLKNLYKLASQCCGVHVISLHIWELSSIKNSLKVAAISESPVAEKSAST
On the technique in general: Calcium flux is commonly read through the fluorescence of an indicator in the cells.

The structures appear in SMILES notation.

One may read the IC50 as the concentration that inhibits the measured activity by half. As to `Cc1c(N2CCCC2)nc2ccc(Br)cc2c1C(=O)NCC(CCC(=O)O)c1c(F)cccc1F` (single isomer, unassigned) [Example 248, 5-({[6-Bromo-3-methyl-2-(pyrrolidin-1-yl)quinolin-4-yl]carbonyl}amino)-4-(2,6-difluorophenyl)pentanoic acid], the 50% inhibitory concentration (IC50) turned out to be 120 nM.

As for `Cc1c(N2CCCC(C)C2)nc2ccc(Br)cc2c1C(=O)NCC(CCC(=O)O)c1ccccc1C(F)(F)F` (single isomer, unassigned; (-)) [Example 199, (−)-5-[({6-Bromo-3-methyl-2-[3-methylpiperidin-1-yl]quinolin-4-yl}carbonyl)amino]-4-[2-(trifluoromethyl)phenyl]pentanoic acid], the half-maximal inhibitory concentration (IC50) was determined as 1.6 nM.

As to `Cc1c(N2CCCC(C#N)C2)nc2ccc(Br)cc2c1C(=O)NCC(CCC(=O)O)c1ccccc1Cl` (stereo not drawn) [Example 76, 5-[({6-Bromo-2-[3-cyanopiperidin-1-yl]-3-methylquinolin-4-yl}carbonyl)amino]-4-(2-chlorophenyl)pentanoic acid], the IC50 was determined as 670 nM.

For `Cc1c(N2CCCC(C)C2)nc2ccc(Br)cc2c1C(=O)NCC(CCC(=O)O)c1ccccc1Cl` (stereo not drawn) [Example 45, 5-[({6-Bromo-3-methyl-2-[3-methylpiperidin-1-yl]quinolin-4-yl}carbonyl)amino]-4-(2-chlorophenyl)pentanoic acid], the 50% inhibitory concentration (IC50) came to 4.7 nM.

For `Cc1c(N2CCCC2)nc2ccc(Br)cc2c1C(=O)NCC(CCC(=O)O)c1ccccc1OC(F)(F)F` (single isomer, unassigned; (-)) [Example 130, (−)-5-({[6-Bromo-3-methyl-2-(pyrrolidin-1-yl)quinolin-4-yl]carbonyl}amino)-4-[2-(trifluoromethoxy)phenyl]pentanoic acid], the IC50 came out at 2.6 nM.

For the compound `Cc1c(N2CCCC(F)C2)nc2ccc(Br)cc2c1C(=O)NCC(CCC(=O)O)c1ccccc1C(F)(F)F` (single isomer, unassigned) [Example 191, 5-[({6-Bromo-2-[3-fluoropiperidin-1-yl]-3-methylquinolin-4-yl}carbonyl)amino]-4-[2-(trifluoromethyl)phenyl]pentanoic acid], the IC50 amounted to 4.1 nM.

Take `Cc1ccc(F)cc1C(CCC(=O)O)CNC(=O)c1c(C)c(N2CCCC(F)(F)C2)nc2ccc(Br)cc12` (single isomer, unassigned; (-)) [Example 213, (−)-5-({[6-Bromo-2-(3,3-difluoropiperidin-1-yl)-3-methylquinolin-4-yl]carbonyl}amino)-4-(5-fluoro-2-methylphenyl)pentanoic acid]: the 50% inhibitory concentration (IC50) is 10 nM.

Take `Cc1c(N2CC3CCCCC3C2)nc2ccc(Br)cc2c1C(=O)NCC(CCC(=O)O)c1ccccc1Cl` (racemic) [Example 86, (+/−)-5-({[6-Bromo-3-methyl-2-(octahydro-2H-isoindol-2-yl)quinolin-4-yl]carbonyl}amino)-4-(2-chlorophenyl)pentanoic acid]: the IC50 is 330 nM.

As for `Cc1c(N2CCCC2)nc2ccc(Br)cc2c1C(=O)NCC(CCC(=O)O)c1ccccc1C(F)(F)F` (single isomer, unassigned; (+)) [Example 115, (+)-5-({[6-Bromo-3-methyl-2-(pyrrolidin-1-yl)quinolin-4-yl]carbonyl}amino)-4-[2-(trifluoromethyl)phenyl]pentanoic acid], the IC50 amounted to 29 nM.

With `Cc1c(N2CCCCC2)nc2ccc(Br)cc2c1C(=O)NCC(CCC(=O)O)c1c(Cl)ccc(F)c1F` (racemic) [Example 144, (+/−)-5-({[6-Bromo-3-methyl-2-(piperidin-1-yl)quinolin-4-yl]carbonyl}amino)-4-(6-chloro-2,3-difluorophenyl)pentanoic acid], the IC50 came out at 2.2 nM.

For `Cc1c(N2CCCC(F)(F)C2)nc2ccc(Br)cc2c1C(=O)NCC(CCC(=O)O)c1c(F)ccc(F)c1Cl` (racemic) [Example 155, (+/−)-5-({[6-Bromo-2-(3,3-difluoropiperidin-1-yl)-3-methylquinolin-4-yl]carbonyl}amino)-4-(2-chloro-3,6-difluorophenyl)pentanoic acid], the IC50 was found to be 3 nM.

On to `Cc1c(N(C)CCc2ccccc2)nc2ccc(Br)cc2c1C(=O)NCC(CCC(=O)O)c1ccccc1Cl` (racemic) [Example 95, (+/−)-5-[({6-Bromo-3-methyl-2-[methyl(2-phenylethyl)amino]quinolin-4-yl}carbonyl)amino]-4-(2-chlorophenyl)pentanoic acid], for which the IC50 worked out at 65 nM.

On to `Cc1c(N2CCCC2)nc2ccc(Br)cc2c1C(=O)NCC(CCC(=O)O)c1cc(F)ccc1F` (single isomer, unassigned; (+)) [Example 259, (+)-5-({[6-Bromo-3-methyl-2-(pyrrolidin-1-yl)quinolin-4-yl]carbonyl}amino)-4-(2,5-difluorophenyl)pentanoic acid], for which the IC50 turned out to be 55 nM.

On to `Cc1c(N2CCCCC2)nc2ccc(Br)cc2c1C(=O)NCC(CCC(=O)O)c1c(Cl)ccc(Cl)c1Cl` (racemic) [Example 171, (+/−)-5-({[6-Bromo-3-methyl-2-(piperidin-1-yl)quinolin-4-yl]carbonyl}amino)-4-(2,3,6-trichlorophenyl)pentanoic acid], for which the IC50 came to 9.4 nM.

For the compound `Cc1c(N2CCCC(F)C2)nc2ccc(Br)cc2c1C(=O)NCC(CCC(=O)O)c1ccccc1C(F)(F)F` (single isomer, unassigned; (+)) [Example 189, (+)-5-[({6-Bromo-2-[3-fluoropiperidin-1-yl]-3-methylquinolin-4-yl}carbonyl)amino]-4-[2-(trifluoromethyl)phenyl]pentanoic acid], the IC50 is 25 nM.

With `Cc1c(N2CCCC(F)C2)nc2ccc(Br)cc2c1C(=O)NCC(CCC(=O)O)c1ccccc1C(F)(F)F` (single isomer, unassigned; (+)) [Example 190, (+)-5-[({6-Bromo-2-[3-fluoropiperidin-1-yl]-3-methylquinolin-4-yl}carbonyl)amino]-4-[2-(trifluoromethyl)phenyl]pentanoic acid], the half-maximal inhibitory concentration (IC50) is 11 nM.

Regarding `Cc1c(N2CCCCC2)nc2ccc(Br)cc2c1C(=O)NCC(CCC(=O)O)c1ccccc1C(F)(F)F` (racemic) [Example 111, (+/−)-5-({[6-Bromo-3-methyl-2-(piperidin-1-yl)quinolin-4-yl]carbonyl}amino)-4-[2-(trifluoromethyl)phenyl]pentanoic acid], the half-maximal inhibitory concentration (IC50) was found to be 6.4 nM.

As to `Cc1c(N2CCCC(F)(F)C2)nc2ccc(Br)cc2c1C(=O)NCC(CCC(=O)O)c1c(F)cccc1C(F)(F)F` (single isomer, unassigned; (+)) [Example 168, (+)-5-({[6-Bromo-2-(3,3-difluoropiperidin-1-yl)-3-methylquinolin-4-yl]carbonyl}amino)-4-[2-fluoro-6-(trifluoromethyl)phenyl]pentanoic acid], the IC50 is 90 nM.

`Cc1c(NC2CCC2)nc2ccc(Br)cc2c1C(=O)NCC(CCC(=O)O)c1ccccc1Cl` (racemic) [Example 97, (+/−)-5-({[6-Bromo-2-(cyclobutylamino)-3-methylquinolin-4-yl]carbonyl}amino)-4-(2-chlorophenyl)pentanoic acid]: the IC50 worked out at 530 nM.

Turning to `Cc1c(N2CCCCC2)nc2ccc(Br)cc2c1C(=O)NCC(CCC(=O)O)c1cc(F)ccc1Cl` (racemic) [Example 5, (+/−)-5-({[6-Bromo-3-methyl-2-(piperidin-1-yl)quinolin-4-yl]carbonyl}amino)-4-(2-chloro-5-fluorophenyl)pentanoic acid], the IC50 turned out to be 9.4 nM.

Consider `Cc1c(N2CCCC(C)C2)nc2ccc(Br)cc2c1C(=O)NCC(CCC(=O)O)c1ccccc1OC(F)(F)F` (single isomer, unassigned; (+)) [Example 211, (+)-5-[({6-Bromo-3-methyl-2-[3-methylpiperidin-1-yl]quinolin-4-yl}carbonyl)amino]-4-[2-(trifluoromethoxy)phenyl]pentanoic acid], for which the IC50 is 17 nM.

With `Cc1c(N2CCCCC2)nc2ccc(Br)cc2c1C(=O)NCC(CCC(=O)O)c1ccccc1C(F)(F)F` (single isomer, unassigned; (-)) [Example 112, (−)-5-({[6-Bromo-3-methyl-2-(piperidin-1-yl)quinolin-4-yl]carbonyl}amino)-4-[2-(trifluoromethyl)phenyl]pentanoic acid], the IC50 came to 3 nM.

Take `Cc1c(NCC(C)C)nc2ccc(Br)cc2c1C(=O)NCC(CCC(=O)O)c1ccccc1Cl` (racemic) [Example 102, (+/−)-5-({[6-Bromo-2-(isobutylamino)-3-methylquinolin-4-yl]carbonyl}amino)-4-(2-chlorophenyl)pentanoic acid]: the IC50 is 250 nM.

In the case of `CCC1CCCN(c2nc3ccc(Br)cc3c(C(=O)NCC(CCC(=O)O)c3ccccc3OC(F)(F)F)c2C)C1` (single isomer, unassigned; (+)) [Example 205, (+)-5-[({6-Bromo-2-[3-ethylpiperidin-1-yl]-3-methylquinolin-4-yl}carbonyl)amino]-4-[2-(trifluoromethoxy)phenyl]pentanoic acid], the IC50 came out at 0.41 nM.

Take `Cc1c(N2CCCC2)nc2ccc(Br)cc2c1C(=O)NCC(CCC(=O)O)c1c(F)cccc1C(F)(F)F` (single isomer, unassigned; (+)) [Example 164, (+)-5-({[6-Bromo-3-methyl-2-(pyrrolidin-1-yl)quinolin-4-yl]carbonyl}amino)-4-[2-fluoro-6-(trifluoromethyl)phenyl]pentanoic acid]: the half-maximal inhibitory concentration (IC50) came out at 80 nM.

For `Cc1c(N2CC[C@@H](F)C2)nc2ccc(Br)cc2c1C(=O)NCC(CCC(=O)O)c1ccccc1Cl` (stereo partly drawn) [Example 66, 5-[({6-Bromo-2-[(3R)-3-fluoropyrrolidin-1-yl]-3-methylquinolin-4-yl}carbonyl)amino]-4-(2-chlorophenyl)pentanoic acid], the IC50 is 12 nM.

`Cc1c(NC2CCCC2)nc2ccc(Br)cc2c1C(=O)NCC(CCC(=O)O)c1ccccc1Cl` (racemic) [Example 103, (+/−)-5-({[6-Bromo-2-(cyclopentylamino)-3-methylquinolin-4-yl]carbonyl}amino)-4-(2-chlorophenyl)pentanoic acid]: the IC50 was found to be 340 nM.

(Values after patent US11149018B2, “Substituted N-arylethyl-2-aminoquinoline-4-carboxamides and use thereof” (Bayer Aktiengesellschaft, priority 2017, dated 2021).)
